# Assay results: article PMC10225205 (Cancer Medicine, 2023)
# “Also recorded” adds a separate entry of the source. Read-outs that look alike come from different tables or passages of the source.
# Key:
# [1] = tested on: refractory advanced malignancies; conditions: cited from earlier work
# [2] = clinical; conditions: human, in vivo; for AUC: AUCss,0-24h; for Vd/F: Vz/F; for Tmax: median; for half-life: t½
# Description: Postdose samples were collected at 0.5, 1, 2, 4, 6, and 8 h on Day 1, and at 1 h on Day 14 of Cycle 1. For patients in the CD regimen, a postdose sample at 6 h on Day 14 was also collected.
# Pharmacodynamic data were presented using summary statistics.
# [3] = c1-2 9 mg ID n=3, c3-4 13.5 mg ID n=23, c5-6 18 mg ID n=5, c7-8 ID subtotal n=31, c9-10 13.5 mg CD n=13, c11-12 total n=44, odd c all grades, even c Grade ≥3
smiles,measurement,setting,value
CCN1C(=O)N(c2c(F)c(OC)cc(OC)c2F)Cc2cnc3[nH]c(CN4CCOCC4)cc3c21 [Pemigatinib],Median progression-free survival,"[1]; FGFR fusions or rearrangements, 95% CI 2.8–10.0",5.7 months
same,Objective response rate,"[1]; FGFR fusions or rearrangements, 95% CI 8.7–49.1",25.0%
same,Partial responses,[1]; across tumor types,12 n
same,Objective response rate,"[1]; all patients, 95% CI 4.9–15.8",9.4%
same,Median duration of response,"[1]; all responders, 95% CI 3.3–14.5",7.3 months
same,AUC(0-t),"[2]; 9 mg, AUC0-24h, geometric mean (CV%)",1.12 µM·h
same,AUC(0-t),"[2]; 9 mg, AUC0-24h, mean ± SD",1.13 ± 0.133 µM·h
same,AUC(0-t),"[2]; 9 mg, AUClast, geometric mean (CV%)",1.12 µM·h
same,AUC(0-t),"[2]; 9 mg, AUClast, mean ± SD",1.12 ± 0.125 µM·h
same,AUC,"[2]; 9 mg, geometric mean (CV%)",2.05 µM·h
same,AUC,"[2]; 9 mg, mean ± SD",2.54 ± 2.1 µM·h
same,Cmax,"[2]; 9 mg, Cmax, geometric mean (CV%)",110 nM
same,Cmax,"[2]; 9 mg, Cmax, mean ± SD",114 ± 35.3 nM
same,Cmax,"[2]; 9 mg, Cmax,ss, geometric mean (CV%)",127 nM
same,Cmax,"[2]; 9 mg, Cmax,ss, mean ± SD",155 ± 117 nM
same,Vd/F,"[2]; 9 mg, geometric mean (CV%)",209 L
same,Vd/F,"[2]; 9 mg, mean ± SD",224 ± 104 L
same,Tmax,[2]; 9 mg,1.9 h
same,half-life,"[2]; 9 mg, geometric mean (CV%)",966 min
same,half-life,"[2]; 9 mg, mean ± SD",1030 ± 446 min
same,AUC(0-t),"[2]; 18 mg, AUC0-24h, geometric mean (CV%)",3.31 µM·h
same,AUC(0-t),"[2]; 18 mg, AUC0-24h, mean ± SD",3.45 ± 1.02 µM·h
same,AUC(0-t),"[2]; 18 mg, AUClast, geometric mean (CV%)",3.24 µM·h
same,AUC(0-t),"[2]; 18 mg, AUClast, mean ± SD",3.38 ± 1.01 µM·h
same,AUC,"[2]; 18 mg, geometric mean (CV%)",6.56 µM·h
same,AUC,"[2]; 18 mg, mean ± SD",6.95 ± 2.78 µM·h
same,Cmax,"[2]; 18 mg, Cmax, geometric mean (CV%)",344 nM
same,Cmax,"[2]; 18 mg, Cmax, mean ± SD",431 ± 272 nM
same,Cmax,"[2]; 18 mg, Cmax,ss, geometric mean (CV%)",385 nM
same,Cmax,"[2]; 18 mg, Cmax,ss, mean ± SD",450 ± 285 nM
same,Vd/F,"[2]; 18 mg, geometric mean (CV%)",154 L
same,Vd/F,"[2]; 18 mg, mean ± SD",205 ± 188 L
same,Tmax,[2]; 18 mg,1.02 h
same,half-life,"[2]; 18 mg, geometric mean (CV%)",1130 min
same,half-life,"[2]; 18 mg, mean ± SD",1240 ± 672 min
same,Maximum tolerated dose (MTD),9-18 mg QD,not identified; also recorded: not reached
same,Clinically notable TEAE: Eyelash changes (trichiasis),[3],2 (15.4) n (%)
same,TEAE: ALT increased,[3],6 (13.6) n (%)
same,TEAE: AST increased,[3],2 (15.4) n (%)
same,TEAE: Blood alkaline phosphatase increased,[3],2 (15.4) n (%)
same,TEAE: Blood creatinine increased,[3],6 (13.6) n (%)
same,TEAE: Conjunctivitis,[3],2 (15.4) n (%)
same,TEAE: Decreased appetite,[3],2 (15.4) n (%)
same,TEAE: Dry skin,[3],2 (15.4) n (%)
same,TEAE: Keratitis,[3],2 (15.4) n (%)
same,TEAE: Malaise,[3],6 (13.6) n (%)
same,TEAE: Nail discoloration,[3],2 (15.4) n (%)
same,TEAE: Paronychia,[3],6 (13.6) n (%)
same,TEAE: Punctate keratitis,[3],2 (15.4) n (%)
same,TEAE: Trichiasis,[3],2 (15.4) n (%)
same,TEAE: Vomiting,[3],6 (13.6) n (%)
same,Chorioretinopathy,"human, in vivo",2.3%
same,Clinically notable TEAE: serous retinal detachment (category),"human, in vivo",18.2%
same,Clinically notable ocular TEAE: dry eye (category),"human, in vivo",25%
same,Dose interruptions due to clinically notable TEAEs,"human, in vivo",22.7%
same,Dose reductions due to clinically notable TEAEs,"human, in vivo",6.8%
same,Dry eye (term),"human, in vivo",6.8%
same,Eyelash changes (trichiasis),"human, in vivo",9.1%
same,Hyperphosphatemia leading to dose reduction,"human, in vivo",2.3%
same,Hypophosphatemia,"human, in vivo",4.5%
same,Keratitis,"human, in vivo",11.4%
same,Lacrimation increased,"human, in vivo",2.3%
same,Nail discoloration,"human, in vivo",6.8%
same,Nail ridging,"human, in vivo",2.3%
same,Nail toxicity TEAEs,"human, in vivo",31.8
same,Oncholysis,"human, in vivo",4.5%
same,Onychomadesis,"human, in vivo",11.4%
same,Paronychia,"human, in vivo",13.6%
same,Patients with at least 1 treatment-related TEAE,"human, in vivo",97.7%
same,Patients with treatment-related TEAEs of Grade ≥3,"human, in vivo",15.9%
same,Punctate keratitis,"human, in vivo",6.8%
same,Serous retinal detachment (term),"human, in vivo",11.4%
same,Severity of hyperphosphatemia events,"human, in vivo",Grades 1 or 2
same,Subretinal fluid,"human, in vivo",4.5%
same,"Treatment-related Grade ≥3 TEAE, each of anemia, punctate keratitis, diarrhea, stomatitis, ALT increased, AST increased, decreased appetite, hematuria","human, in vivo",2.3%
same,"Treatment-related alanine aminotransferase increased, Grade ≥3","human, in vivo",1 (2.3) n (%)
same,"Treatment-related aspartate aminotransferase increased, Grade ≥3","human, in vivo",1 (2.3) n (%)
same,"Treatment-related decreased appetite, Grade ≥3","human, in vivo",1 (2.3) n (%)
same,"Treatment-related diarrhea, Grade ≥3","human, in vivo",1 (2.3) n (%)
same,"Treatment-related stomatitis, Grade ≥3","human, in vivo",1 (2.3) n (%)
same,Vision blurred,"human, in vivo",4.5%
same,Recommended phase 2 dose (RP2D),"human, in vivo, 21 days",13.5 mg
same,Discontinuation due to hyperphosphatemia,in vivo,No patients
same,Dose-limiting toxicities (DLTs),in vivo,No DLTs
same,Patients with any TEAE,in vivo,all enrolled patients
same,TEAE with a fatal outcome,"overall, considered unrelated to pemigatinib",6.8%
